According to paper PMC4819188, “BitterX: a tool for understanding bitter taste in humans” (Scientific Reports, 2016):
Where two headings read alike, the source gives them in different places.

Key:
Assay in all cases: calcium imaging (Fluo-4) dose-response, HEK293T
Format in all cases: cell-based
TAS2R14 = target: T1, TAS2R14 (Homo sapiens, UniProt Q9NYV8)
T1 construct: full ORF from human genomic DNA with N-terminal rhodopsin tag (first 20 residues), pCI; HEK293T with Galpha16/gust44
T1 sequence (Q9NYV8 1-317): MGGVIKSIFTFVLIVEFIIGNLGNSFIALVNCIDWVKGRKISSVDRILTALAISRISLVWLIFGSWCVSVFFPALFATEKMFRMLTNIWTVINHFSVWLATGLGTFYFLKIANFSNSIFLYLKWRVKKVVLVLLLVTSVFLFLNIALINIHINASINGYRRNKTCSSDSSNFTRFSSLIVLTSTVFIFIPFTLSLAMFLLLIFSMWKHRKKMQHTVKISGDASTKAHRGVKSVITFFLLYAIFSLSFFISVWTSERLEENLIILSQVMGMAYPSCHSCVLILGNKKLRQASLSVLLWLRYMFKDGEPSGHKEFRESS
Excerpt: calcium imaging (Fluo-4) dose-response, HEK293T on TAS2R14

TAS2R10 = target: T2, TAS2R10 (Homo sapiens, UniProt Q9NYW0)
T2 construct: full ORF from human genomic DNA with N-terminal rhodopsin tag (first 20 residues), pCI; HEK293T with Galpha16/gust44
T2 sequence (Q9NYW0 1-307): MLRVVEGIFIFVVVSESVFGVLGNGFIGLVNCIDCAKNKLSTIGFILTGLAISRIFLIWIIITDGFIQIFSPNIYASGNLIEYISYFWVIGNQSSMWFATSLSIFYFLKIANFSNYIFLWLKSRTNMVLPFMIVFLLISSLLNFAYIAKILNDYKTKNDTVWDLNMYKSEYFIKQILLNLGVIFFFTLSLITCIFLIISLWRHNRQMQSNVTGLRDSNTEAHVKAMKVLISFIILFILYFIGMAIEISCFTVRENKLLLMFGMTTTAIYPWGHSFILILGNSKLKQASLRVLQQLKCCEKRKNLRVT
Excerpt: calcium imaging (Fluo-4) dose-response, HEK293T on TAS2R10

TAS2R16 = target: T3, TAS2R16 (Homo sapiens, UniProt Q9NYV7)
T3 construct: full ORF from human genomic DNA with N-terminal rhodopsin tag (first 20 residues), pCI; HEK293T with Galpha16/gust44
T3 sequence (Q9NYV7 1-291): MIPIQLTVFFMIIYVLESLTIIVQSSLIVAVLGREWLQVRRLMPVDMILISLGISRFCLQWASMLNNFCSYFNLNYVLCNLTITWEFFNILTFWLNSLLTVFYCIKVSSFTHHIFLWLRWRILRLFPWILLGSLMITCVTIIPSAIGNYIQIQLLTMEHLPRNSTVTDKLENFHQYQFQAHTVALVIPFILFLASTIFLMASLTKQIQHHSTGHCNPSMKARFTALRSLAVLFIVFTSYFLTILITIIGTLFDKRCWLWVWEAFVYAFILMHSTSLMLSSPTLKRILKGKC
Excerpt: calcium imaging (Fluo-4) dose-response, HEK293T on TAS2R16

TAS2R4 = target: T4, TAS2R4 (Homo sapiens, UniProt Q9NYW5)
T4 construct: full ORF from human genomic DNA with N-terminal rhodopsin tag (first 20 residues), pCI; HEK293T with Galpha16/gust44
T4 sequence (Q9NYW5 1-299): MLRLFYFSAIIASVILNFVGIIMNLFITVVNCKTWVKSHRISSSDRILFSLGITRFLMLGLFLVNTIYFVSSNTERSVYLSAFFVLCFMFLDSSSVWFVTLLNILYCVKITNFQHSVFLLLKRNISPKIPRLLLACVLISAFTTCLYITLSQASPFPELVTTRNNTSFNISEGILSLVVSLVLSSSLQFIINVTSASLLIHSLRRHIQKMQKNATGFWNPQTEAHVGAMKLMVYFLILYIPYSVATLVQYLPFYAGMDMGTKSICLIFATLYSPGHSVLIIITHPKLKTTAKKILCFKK
Excerpt: calcium imaging (Fluo-4) dose-response, HEK293T on TAS2R4

TAS2R41 = target: T5, TAS2R41 (Homo sapiens, UniProt P59536)
T5 construct: full ORF from human genomic DNA with N-terminal rhodopsin tag (first 20 residues), pCI; HEK293T with Galpha16/gust44
T5 sequence (P59536 1-307): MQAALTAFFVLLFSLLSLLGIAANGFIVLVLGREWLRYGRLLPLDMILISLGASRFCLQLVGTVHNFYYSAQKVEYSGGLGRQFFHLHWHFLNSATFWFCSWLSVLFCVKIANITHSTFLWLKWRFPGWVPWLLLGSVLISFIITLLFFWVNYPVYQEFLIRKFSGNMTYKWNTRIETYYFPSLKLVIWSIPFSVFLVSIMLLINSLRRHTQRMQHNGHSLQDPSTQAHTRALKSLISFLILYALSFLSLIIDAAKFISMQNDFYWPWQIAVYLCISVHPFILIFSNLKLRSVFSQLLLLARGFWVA
Excerpt: calcium imaging (Fluo-4) dose-response, HEK293T on TAS2R41

TAS2R46 = target: T6, TAS2R46 (Homo sapiens, UniProt P59540)
T6 construct: full ORF from human genomic DNA with N-terminal rhodopsin tag (first 20 residues), pCI; HEK293T with Galpha16/gust44
T6 sequence (P59540 1-309): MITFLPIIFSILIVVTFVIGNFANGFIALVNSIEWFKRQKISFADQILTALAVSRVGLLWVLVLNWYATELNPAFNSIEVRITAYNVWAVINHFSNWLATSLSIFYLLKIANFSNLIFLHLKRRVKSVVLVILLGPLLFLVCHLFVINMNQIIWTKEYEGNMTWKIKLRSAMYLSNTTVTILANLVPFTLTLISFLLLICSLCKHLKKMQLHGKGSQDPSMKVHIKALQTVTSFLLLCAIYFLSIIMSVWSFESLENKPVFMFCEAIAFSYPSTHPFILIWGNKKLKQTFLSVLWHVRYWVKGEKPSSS
Excerpt: calcium imaging (Fluo-4) dose-response, HEK293T on TAS2R46

TAS2R39 = target: T7, TAS2R39 (Homo sapiens, UniProt P59534)
T7 construct: full ORF from human genomic DNA with N-terminal rhodopsin tag (first 20 residues), pCI; HEK293T with Galpha16/gust44
T7 sequence (P59534 1-338): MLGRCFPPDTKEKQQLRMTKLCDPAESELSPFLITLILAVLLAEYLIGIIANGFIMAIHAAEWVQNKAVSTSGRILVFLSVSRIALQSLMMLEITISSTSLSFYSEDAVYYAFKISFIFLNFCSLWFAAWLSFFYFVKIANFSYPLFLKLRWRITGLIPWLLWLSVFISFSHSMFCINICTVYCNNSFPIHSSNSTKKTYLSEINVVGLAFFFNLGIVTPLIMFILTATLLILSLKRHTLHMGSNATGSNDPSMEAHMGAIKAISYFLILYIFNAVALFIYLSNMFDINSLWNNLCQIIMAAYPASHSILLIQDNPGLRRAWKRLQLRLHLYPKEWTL
Excerpt: calcium imaging (Fluo-4) dose-response, HEK293T on TAS2R39

Row | Compound | EC50 (TAS2R14) | EC50 (TAS2R10; read-out: Log EC50 (converted)) | EC50 (TAS2R14; read-out: Log EC50 (converted)) | EC50 (TAS2R10) | other results
1 | c1ccc(CC2=NCCN2)cc1 [ww3] | 1280 µM |  |  |  | 
2 | NC(=O)c1ccccc1O [compound 2, 2] |  | 9750 µM | 356 µM |  | EC50 (TAS2R16): 489 µM
3 | N=C(N)NC(=N)Nc1ccccc1 [compound 1, 1] | 760 µM |  |  | 1540 µM | EC50 (TAS2R4): 3710 µM; EC50 (TAS2R41): 3320 µM
4 | COc1cc(/C=C\C(=O)O)cc(S(=O)(=O)Nc2ccc(C(=O)O)cc2)c1OC [compound 5, 5] | 232 µM |  |  | 4000 µM | EC50 (TAS2R46): 138 µM; EC50 (TAS2R39): 84.1 µM
5 | COc1ccccc1C=O [compound 4, 4] |  | 4000 µM | 1230 µM |  | 
